# Experimental data from patent US8557764B2, “Methods of modulating immune function” (The Regents of the University of Colorado, a body corporate, priority 2007, dated 2013).
# No end group written: not given here. *: point of attachment. Biotin = O=C1N[C@H]2[C@H](CS[C@H]2CCCCC(=O)*)N1
# What was measured:
# [1] = system: cell surface CD74 on Raji or Daudi cells; assay: MKN1 (bioCLIP) effect on cell surface CD74 levels (flow cytometry); type: cell-based, human; conditions: 24 and 48 hours
# Description: (§1) The ability of MKN1 (bioCLIP) to alter cell surface CLIP and CD74 levels was determined using Raji or Daudi cells.
# (§2) Data were analyzed by histogram with Y axis represents cell number of the 5000 live cells versus the X axis which is a reflection of relative FITC fluorescence with either antibodies to CLIP or CD74. The distance between the histogram from the isotype control staining versus the histogram reflecting the specific stain and is a measure of level of cell surface CLIP or CD74 when staining a population of live Raji or Daudi cells.
# (§3) Cell Culture Conditions: The Raji and Daudi cell lines were purchased from American Type Culture Collection, were thawed, and grown in RPMI 1640 medium supplemented with standard supplements, including 10% fetal calf serum, gentamycin, penicillin, streptomycin, sodium pyruvate, HEPES buffer, 1-glutamine, and 2-ME.
# (§4) Protocol: Cells were plated into a 12 well plate with 3 mls total volume containing approximately 0.5×10^6/mL for Daudi cells and 0.5×10^6/mL for Raji cells. […]
# (§5) Harvested cells were stained using standard staining procedure that called for a 1:100 dilution of Fitc-anti-human CLIP or CD74 antibody (Fitc, Pharmingen, Cat #554647) or isotype control. […] Samples were acquired and analyzed on a Coulter Excel Flow Cytometer.
# [2] = system: cell surface CLIP on Raji or Daudi cells; assay: MKN1 (bioCLIP) effect on cell surface CLIP levels (flow cytometry); type: cell-based, human; conditions: 24 and 48 hours
# Description: as §1, §2, §3, §4, §5
# [3] = relative to cyclosporin; cited from earlier work
# [4] = system: cell surface CD1d on Raji and Daudi cells; assay: Cell surface expression of CD1d after competing peptide treatment (flow cytometry); type: cell-based, human; conditions: 50 microMolar, both cell lines
# Description: (§6) The ability of synthetic peptides to compete with binding of CLIP peptides and result in the cell surface expression of CD1d was determined.
# (§7) Results: The results shown in FIG. 5 are expressed in histogram analyses. The Y axis represents cell number of the 5000 live cells versus the X axis which is a reflection of relative Fitc fluorescence versus Streptavidin-PE (eBioscience, Cat. #12-4317) that will bind with high affinity to cell-bound biotinylated peptides. The distance between the histogram from the isotype control staining versus the histogram reflecting the specific stain and is a measure of level of cell surface CD1d.
# as §3
# (§8) Protocol: Cells were plated into a 12 well plate with 3 mls total volume containing approximately 1.5×10^6/well for Daudi cells and 3.0×10^6/well for Raji cells. Treatment groups included no treatment as control and biotinylated […] […]
# (§9) Harvested cells were stained using standard staining procedure that called for a 1:100 dilution of PE anti-CD1d. […] Samples were acquired and analyzed on a Coulter Excel Flow Cytometer.
# [5] = system: human B cell lines, Raji and Daudi; assay: Binding of biotinylated synthetic peptide to B cell lines (Streptavidin-PE flow cytometry); type: cell-based; conditions: 50 microMolar
# Description: as §6, §7, §3, §8, §9
compound,measurement,setting,value
"MKN1: 19 mer, Biotin at N-Terminal = Biotinylated CLIP; SGG GSK MRM ATP LLM QAL Y (SEQ ID NO. 5) (Biotin-SGGGSKMRMATPLLMQALY)",cell surface CD74 levels,[1],alters
same,cell surface CLIP levels,[2],alters
"C=CC[C@@H]1/C=C(\C)C[C@H](C)C[C@H](OC)[C@H]2O[C@@](O)(C(=O)C(=O)N3CCCC[C@H]3C(=O)O[C@H](/C(C)=C/[C@@H]3CC[C@@H](O)[C@H](OC)C3)[C@H](C)[C@@H](O)CC1=O)[C@H](C)C[C@@H]2OC [FK506, tacrolimus]",immunosuppressive activity greater than cyclosporin,[3],10-100 times
"Biotinylated FRIMAVLAS: biotinylated synthetic peptide FRIMAVLAS (SEQ ID NO. 2), also referred to as MKN 5 (also: biotinylated)",cell surface expression of CD1d,[4]; 4 hours,marginally
same,cell surface expression of CD1d,[4]; 24 hours,slightly more
same,binding of biotinylated peptide to the cell lines,"[5]; 4 hours, Raji and Daudi",bound with high affinity
same,binding of biotinylated peptide to the cell lines,[5]; 24 hours,Less binding
